# Data reported in the supplement of paper PMC10307832.
# Compound: C[C@@H](Oc1cc(-c2cnn(C3CCNCC3)c2)cnc1N)c1c(Cl)ccc(F)c1Cl [Crizotinib] + CCNC(=O)c1noc(-c2cc(C(C)C)c(O)cc2O)c1-c1ccc(CN2CCOCC2)cc1 [Luminespib] (partner 0.01 µM)
# Assay: relative viability (nuclei count vs DMSO), 5 days (fraction); higher = more cells survive
# Conditions: first compound 0.01 µM
# In short: (§1)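 One day after seeding in 1536-well plates, lung cancer cell lines were dosed by pin tool. Dosing was either single-drug or a fixed anchor-drug dose plus five library-drug doses (not always all listed) in √10 steps. After 5 days, nuclei were stained in one fix-and-stain step and counted on 4× images, and relative viability is the nuclei count of treated wells over that of vehicle wells, given as the median of duplicate plates.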
row,Cell Line,relative viability
1,SK-LU-1,0.208
2,SK-MES-1,0.669
3,SW 1573,0.132
4,UMC-11,0.898

# Same assay, conditions: first compound 0.03162 µM
row,Cell Line,relative viability
1,SK-LU-1,0.195
2,SK-MES-1,0.827
3,SW 1573,0.342
4,UMC-11,1.1

# Same assay, conditions: first compound 0.1 µM
row,Cell Line,relative viability
1,SK-LU-1,0.225
2,SK-MES-1,0.771
3,SW 1573,0.253
4,UMC-11,0.885

# Same assay, conditions: first compound 0.3162 µM
row,Cell Line,relative viability
1,SK-LU-1,0.224
2,SK-MES-1,0.712
3,SW 1573,0.405
4,UMC-11,0.965

# Same assay, conditions: first compound 1 µM
row,Cell Line,relative viability
1,SK-LU-1,0.206
2,SK-MES-1,0.76
3,SW 1573,0.236
4,UMC-11,1.12

# Compound: C[C@@H](Oc1cc(-c2cnn(C3CCNCC3)c2)cnc1N)c1c(Cl)ccc(F)c1Cl [Crizotinib] + COc1cccc2cc(-c3nc([C@H]4CC[C@H](C(=O)O)CC4)n4ncnc(N)c34)[nH]c12 [OSI-027] (partner 0.5 µM)
# Assay: as above
# Conditions: first compound 0.01 µM
# In short: as §1
row,Cell Line,relative viability
1,SK-LU-1,0.36
2,SK-MES-1,0.612
3,SW 1573,0.538
4,UMC-11,0.418

# Same assay, conditions: first compound 0.03162 µM
row,Cell Line,relative viability
1,SK-LU-1,0.342
2,SK-MES-1,0.646
3,SW 1573,0.609
4,UMC-11,0.472

# Same assay, conditions: first compound 0.1 µM
row,Cell Line,relative viability
1,SK-LU-1,0.331
2,SK-MES-1,0.568
3,SW 1573,0.563
4,UMC-11,0.523

# Same assay, conditions: first compound 0.3162 µM
row,Cell Line,relative viability
1,SK-LU-1,0.324
2,SK-MES-1,0.556
3,SW 1573,0.59
4,UMC-11,0.434

# Same assay, conditions: first compound 1 µM
row,Cell Line,relative viability
1,SK-LU-1,0.353
2,SK-MES-1,0.586
3,SW 1573,0.587
4,UMC-11,0.46

# Compound: CC(C)C[C@H](NC(=O)[C@H](CCc1ccccc1)NC(=O)CN1CCOCC1)C(=O)N[C@@H](Cc1ccccc1)C(=O)N[C@@H](CC(C)C)C(=O)[C@@]1(C)CO1 [Carfilzomib] + O=C(CCCCCCC(=O)Nc1ccccc1)NO [Vorinostat] (partner 1 µM)
# Assay: as above
# Conditions: first compound 0.001 µM
# In short: as §1
row,Cell Line,relative viability
1,SK-LU-1,0.772
2,SK-MES-1,1.11
3,SW 1573,0.648
4,UMC-11,0.413

# Same assay, conditions: first compound 0.003162 µM
row,Cell Line,relative viability
1,SK-LU-1,0.864
2,SK-MES-1,1.12
3,SW 1573,1.31
4,UMC-11,0.395

# Same assay, conditions: first compound 0.01 µM
row,Cell Line,relative viability
1,SK-LU-1,0.533
2,SK-MES-1,1.15
3,SW 1573,0.243
4,UMC-11,0.394

# Same assay, conditions: first compound 0.03162 µM
row,Cell Line,relative viability
1,SK-LU-1,0.219
2,SK-MES-1,0.579
3,SW 1573,0.0435
4,UMC-11,0.308

# Same assay, conditions: first compound 0.1 µM
row,Cell Line,relative viability
1,SK-LU-1,0.198
2,SK-MES-1,0.156
3,SW 1573,0.041
4,UMC-11,0.115

# Compound: O=C(c1cc(Cc2n[nH]c(=O)c3ccccc23)ccc1F)N1CCN(C(=O)C2CC2)CC1 [Olaparib] + CS(=O)(=O)CCNCc1ccc(-c2ccc3ncnc(Nc4ccc(OCc5cccc(F)c5)c(Cl)c4)c3c2)o1 [Lapatinib] (partner 2 µM)
# Assay: as above
# Conditions: first compound 0.08 µM
# In short: as §1
row,Cell Line,relative viability
1,SK-LU-1,1.2
2,SK-MES-1,0.537
3,SW 1573,1.16
4,UMC-11,1.08

# Same assay, conditions: first compound 0.253 µM
row,Cell Line,relative viability
1,SK-LU-1,0.803
2,SK-MES-1,0.491
3,SW 1573,1
4,UMC-11,0.928

# Same assay, conditions: first compound 2.53 µM
row,Cell Line,relative viability
1,SK-LU-1,0.83
2,SK-MES-1,0.501
3,SW 1573,1
4,UMC-11,0.643

# Same assay, conditions: first compound 8 µM
row,Cell Line,relative viability
1,SK-LU-1,0.683
2,SK-MES-1,0.433
3,SW 1573,0.689
4,UMC-11,0.365
